# Experimental data taken from ChEMBL document CHEMBL1154410, “In vivo efficacy of a novel oxazolidinone compound in two mouse models of infection” (Antimicrob Agents Chemother, 2007).
# Activity calls are given as the source filed them. The calls are words filed in the database; no cut-off is given here.
# How the values were obtained:
# [1] = system: Staphylococcus aureus; experiment: Antibacterial activity against methicillin-susceptible Staphylococcus aureus Smith infected in C3H mouse assessed as eradication at 25 mg/kg/day, po administered within 15 mins of infection assessed per gram of kidney measured after 48 hrs by organ burden assay relative to control; assay type: functional
# [2] = system: Staphylococcus aureus; experiment: Antibacterial activity against methicillin-susceptible Staphylococcus aureus Smith infected in C3H mouse assessed as eradication at 12.5 mg/kg/day, po administered within 15 mins of infection assessed per gram of kidney measured after 48 hrs by organ burden assay relative to control; assay type: functional
# [3] = system: Staphylococcus aureus; experiment: Antibacterial activity against methicillin-susceptible Staphylococcus aureus Smith infected in C3H mouse assessed as eradication at 6.25 mg/kg/day, po administered within 15 mins of infection assessed per gram of kidney measured after 48 hrs by organ burden assay relative to control; assay type: functional
# [4] = system: Staphylococcus aureus; experiment: Antibacterial activity against methicillin-susceptible Staphylococcus aureus Smith infected in C3H mouse assessed as eradication at 3.12 mg/kg/day, po administered within 15 mins of infection assessed per gram of kidney measured after 48 hrs by organ burden assay relative to control; assay type: functional
# [5] = system: Staphylococcus aureus; experiment: Antibacterial activity against methicillin-susceptible Staphylococcus aureus Smith infected in C3H mouse assessed as reduction in log number of CFU at 25 mg/kg/day, po administered within 15 mins of infection measured after 48 hrs by organ burden assay relative to control; assay type: functional
# [6] = system: Staphylococcus aureus; experiment: Antibacterial activity against methicillin-susceptible Staphylococcus aureus Smith infected in C3H mouse assessed as reduction in log number of CFU at 12.5 mg/kg/day, po administered within 15 mins of infection measured after 48 hrs by organ burden assay relative to control; assay type: functional
# [7] = system: Staphylococcus aureus; experiment: Antibacterial activity against methicillin-susceptible Staphylococcus aureus Smith infected in C3H mouse assessed as reduction in log number of CFU at 6.25 mg/kg/day, po administered within 15 mins of infection measured after 48 hrs by organ burden assay relative to control; assay type: functional
# [8] = system: Staphylococcus aureus; experiment: Antibacterial activity against methicillin-susceptible Staphylococcus aureus Smith infected in C3H mouse assessed as reduction in log number of CFU at 3.12 mg/kg/day, po administered within 15 mins of infection measured after 48 hrs by organ burden assay relative to control; assay type: functional
# [9] = system: Staphylococcus aureus; experiment: Antibacterial activity against methicillin-susceptible Staphylococcus aureus Smith infected in C3H mouse assessed as eradication at 25 mg/kg/day, iv administered within 15 mins of infection assessed per gram of kidney measured after 48 hrs by organ burden assay relative to control; assay type: functional
# [10] = system: Staphylococcus aureus; experiment: Antibacterial activity against methicillin-susceptible Staphylococcus aureus Smith infected in C3H mouse assessed as eradication at 12.5 mg/kg/day, iv administered within 15 mins of infection assessed per gram of kidney measured after 48 hrs by organ burden assay relative to control; assay type: functional
# [11] = system: Staphylococcus aureus; experiment: Antibacterial activity against methicillin-susceptible Staphylococcus aureus Smith infected in C3H mouse assessed as eradication at 6.25 mg/kg/day, iv administered within 15 mins of infection assessed per gram of kidney measured after 48 hrs by organ burden assay relative to control; assay type: functional
# [12] = system: Staphylococcus aureus; experiment: Antibacterial activity against methicillin-susceptible Staphylococcus aureus Smith infected in C3H mouse assessed as eradication at 3.12 mg/kg/day, iv administered within 15 mins of infection assessed per gram of kidney measured after 48 hrs by organ burden assay relative to control; assay type: functional
# [13] = system: Staphylococcus aureus; experiment: Antibacterial activity against methicillin-susceptible Staphylococcus aureus Smith infected in C3H mouse assessed as reduction in log number of CFU at 25 mg/kg/day, iv administered within 15 mins of infection measured after 48 hrs by organ burden assay relative to control; assay type: functional
# [14] = system: Staphylococcus aureus; experiment: Antibacterial activity against methicillin-susceptible Staphylococcus aureus Smith infected in C3H mouse assessed as reduction in log number of CFU at 12.5 mg/kg/day, iv administered within 15 mins of infection measured after 48 hrs by organ burden assay relative to control; assay type: functional
# [15] = system: Staphylococcus aureus; experiment: Antibacterial activity against methicillin-susceptible Staphylococcus aureus Smith infected in C3H mouse assessed as reduction in log number of CFU at 6.25 mg/kg/day, iv administered within 15 mins of infection measured after 48 hrs by organ burden assay relative to control; assay type: functional
# [16] = system: Staphylococcus aureus; experiment: Antibacterial activity against methicillin-susceptible Staphylococcus aureus Smith infected in C3H mouse assessed as reduction in log number of CFU at 3.12 mg/kg/day, iv administered within 15 mins of infection measured after 48 hrs by organ burden assay relative to control; assay type: functional
# [17] = system: Staphylococcus aureus; experiment: Antibacterial activity against methicillin-susceptible Staphylococcus aureus Smith infected in po dosed C3H mouse localized infection model assessed as reduction of number of CFU per gram of kidney administered 15 mins after infection measured after 48 hrs relative to control; assay type: functional
# [18] = system: Staphylococcus aureus; experiment: Antibacterial activity against methicillin-susceptible Staphylococcus aureus Smith infected in iv dosed C3H mouse localized infection model assessed as reduction of number of CFU per gram of kidney administered 15 mins after infection measured after 48 hrs relative to control; assay type: functional
# [19] = system: Staphylococcus aureus; experiment: Antibacterial activity against 3.6 x 10^8 CFU methicillin-resistant Staphylococcus aureus COL by dilution susceptibility test; assay type: functional
# [20] = system: Staphylococcus aureus; experiment: Antibacterial activity against methicillin-resistant Staphylococcus aureus COL infected in po dosed DBA/2 mouse localized infection model assessed as reduction of number of CFU per gram of thigh administered 2 hrs postinfection thrice daily for 1 day and once daily for 5 days measured after 48 hrs relative to control; assay type: functional
# [21] = system: Staphylococcus aureus; experiment: Antibacterial activity against methicillin-resistant Staphylococcus aureus COL infected in iv dosed DBA/2 mouse localized infection model assessed as reduction of number of CFU per gram of thigh administered 2 hrs postinfection thrice daily for 1 day and once daily for 1 day measured after 48 hrs relative to control; assay type: functional
# [22] = system: Staphylococcus aureus; experiment: Antibacterial activity against linezolid-resistant methicillin-resistant Staphylococcus aureus infected in po dosed C3H mouse localized infection model assessed as reduction of number of CFU per gram of thigh administered 2 hrs postinfection thrice daily for 1 day and once daily for 5 days measured after 48 hrs relative to control; assay type: functional; details: Thigh muscle
# [23] = system: Staphylococcus aureus; experiment: Antibacterial activity against methicillin-resistant Staphylococcus aureus COL infected in po dosed DBA/2 mouse localized infection model assessed as log reduction in CFU per gram of thigh at 10 mg/kg, po administered 2 hrs postinfection thrice daily for 1 day and once daily for 5 days measured after 48 hrs by organ burden assay relative to control; assay type: functional
# [24] = system: Staphylococcus aureus; experiment: Antibacterial activity against methicillin-resistant Staphylococcus aureus COL infected in po dosed DBA/2 mouse localized infection model assessed as log reduction in CFU per gram of thigh at 5 mg/kg, po administered 2 hrs postinfection thrice daily for 1 day and once daily for 5 days measured after 48 hrs by organ burden assay relative to control; assay type: functional
# [25] = system: Staphylococcus aureus; experiment: Antibacterial activity against methicillin-resistant Staphylococcus aureus COL infected in po dosed DBA/2 mouse localized infection model assessed as log reduction in CFU per gram of thigh at 10 mg/kg, iv administered 2 hrs postinfection thrice daily for 1 day and once daily for 1 day measured after 48 hrs by organ burden assay relative to control; assay type: functional
# [26] = system: Staphylococcus aureus; experiment: Antibacterial activity against methicillin-resistant Staphylococcus aureus COL infected in po dosed DBA/2 mouse localized infection model assessed as log reduction in CFU per gram of thigh at 5 mg/kg, iv administered 2 hrs postinfection thrice daily for 1 day and once daily for 1 day measured after 48 hrs by organ burden assay relative to control; assay type: functional
# [27] = Fraction unbound in Staphylococcus aureus-infected mouse localized thigh infection model plasma at 25 mg/kg; assay type: ADME, organism-based; design: dose 25 mg/kg; details: read-out: PPB
# [28] = Bioavailability in Staphylococcus aureus-infected mouse localized thigh infection model at 25 mg/kg; assay type: ADME, organism-based; details: in vivo
# [29] = system: Staphylococcus aureus; experiment: Antibacterial activity against 10^9 CFU linezolid-resistant methicillin-resistant Staphylococcus aureus by dilution susceptibility test; assay type: functional
# [30] = system: Staphylococcus aureus; experiment: Antibacterial activity against methicillin-resistant Staphylococcus aureus; assay type: functional, organism-based
# [31] = system: Enterococcus; experiment: Antibacterial activity against vancomycin-resistant Enterococcus spp.; assay type: functional, organism-based
# [32] = system: Streptococcus pneumoniae; experiment: Antibacterial activity against penicillin-resistant Streptococcus pneumoniae; assay type: functional, organism-based
# [33] = system: Haemophilus influenzae; experiment: Antibacterial activity against Haemophilus influenzae by dilution susceptibility test; assay type: functional
# [34] = system: Moraxella catarrhalis; experiment: Antibacterial activity against Moraxella catarrhalis by dilution susceptibility test; assay type: functional
# [35] = system: Staphylococcus aureus; experiment: Antibacterial activity against methicillin-susceptible Staphylococcus aureus Smith by dilution susceptibility test; assay type: functional
# [36] = system: Staphylococcus aureus; experiment: Antibacterial activity against methicillin-susceptible Staphylococcus aureus Smith infected in C3H mouse assessed as renal sterilization at 25 mg/kg/day, po administered 15 mins postinfection; assay type: functional, organism-based
# [37] = system: Staphylococcus aureus; experiment: Antibacterial activity against linezolid-resistant methicillin-resistant Staphylococcus aureus infected in C3H mouse localized infection model assessed as log reduction in CFU per gram of thigh at 100 mg/kg measured after 48 hrs by organ burden assay relative to control; assay type: functional
smiles,measurement,setting,value
N#C[C@]1(c2ccc(-c3ccc(N4C[C@H](Cn5ccnn5)OC4=O)cc3F)cn2)[C@@H]2CNC[C@@H]21,Activity,[1],0%
same,Activity,[2],0%
same,Activity,[3],0%
same,Activity,[4],0%
same,Activity,[5],5.23
same,Activity,[6],2.93
same,Activity,[7],2.63
same,Activity,[8],-0.26
same,Activity,[9],0%
same,Activity,[10],0%
same,Activity,[11],0%
same,Activity,[12],0%
same,Activity,[13],4.59
same,Activity,[14],4.46
same,Activity,[15],2.03
same,Activity,[16],0.06
same,ED99,[17],4.9 mg/kg
same,ED99,[18],6.3 mg/kg
same,MIC,[19],0.125 µg/mL
same,ED99,[20],4.2 mg/kg
same,ED99,[21],5.6 mg/kg
same,ED99,[22],10.2 mg/kg
same,log10cfu,[23],3.7
same,log10cfu,[24],2
same,log10cfu,[25],1.5
same,log10cfu,[26],2.4
same,fraction unbound,[27],0.19
same,bioavailability,[28],30%
same,MIC,[29],1 µg/mL
same,Activity,[30],Active
same,Activity,[31],Active
same,Activity,[32],Active
same,MIC90,[33],2 µg/mL
same,MIC90,[34],0.5 µg/mL
same,MIC,[35],0.125 µg/mL
CC(=O)NC[C@H]1CN(c2ccc(N3CCOCC3)c(F)c2)C(=O)O1 [LINEZOLID],Activity,[1],100%
same,Activity,[2],0%
same,Activity,[3],0%
same,Activity,[4],0%
same,Activity,[5],6.07
same,Activity,[6],2.71
same,Activity,[7],1.44
same,Activity,[8],-0.53
same,Activity,[9],0%
same,Activity,[10],0%
same,Activity,[11],0%
same,Activity,[12],0%
same,Activity,[13],4.27
same,Activity,[14],1.44
same,Activity,[15],-0.12
same,Activity,[16],-0.27
same,ED99,[17],7 mg/kg
same,ED99,[18],12 mg/kg
same,MIC,[19],1 µg/mL
same,Activity,[36],Active
same,ED99,[20],5.2 mg/kg
same,ED99,[21],6.9 mg/kg
same,ED99,[22],85 mg/kg
same,log10cfu,[23],3.7
same,log10cfu,[24],2
same,log10cfu,[25],1.5
same,log10cfu,[26],2.4
same,fraction unbound,[27],0.68
same,MIC,[29],64 µg/mL
same,log10cfu,[37],2.5
